What was measured:
[1] = system: Beet Armyworm (Spodoptera exigua) ("BAW"); experiment: Bioassay on beet armyworm (BAW), 128-well diet tray assay; type: in vivo; conditions: Table ABC (FB), activity rating class, read-out: BAW (Biological Results, Insect species)
Method: (§1) Certain molecules disclosed in this document were tested against BAW and CEW using procedures described in the following examples. In the reporting of the results, the “BAW & CL Rating Table” was used (See Table Section). BIOASSAYS ON BAW
Bioassays on BAW were conducted using a 128-well diet tray assay. one to five second instar BAW larvae were placed in each well (3 mL) of the diet tray that had been previously filled with 1 mL of artificial diet to which 50 μg/cm^2 of the test compound (dissolved in 50 μL of 90:10 acetone-water mixture) had been applied (to each of eight wells) and then allowed to dry. Trays were covered with a clear self-adhesive cover and held at 25° C., 14:10 light-dark for five to seven days. Percent mortality was recorded for the larvae in each well; activity in the eight wells was then averaged. The results are indicated in the table entitled “Table ABC: Biological Results” (See Table Section).

[2] = system: Cabbage Looper (Trichoplusia ni) ("CL"); experiment: Bioassay on cabbage looper (CL), 128-well diet tray assay; type: in vivo; conditions: Table ABC (FB), activity rating class, read-out: CL (Biological Results, Insect species)
Method: as §1
Bioassays on CL were conducted using a 128-well diet tray assay. one to five second instar CL larvae were placed in each well (3 mL) of the diet tray that had been previously filled with 1 mL of artificial diet to which 50 μg/cm^2 of the test compound (dissolved in 50 μL of 90:10 acetone-water mixture) had been applied (to each of eight wells) and then allowed to dry. Trays were covered with a clear self-adhesive cover and held at 25° C., 14:10 light-dark for five to seven days. Percent mortality was recorded for the larvae in each well; activity in the eight wells was then averaged. The results are indicated in the table entitled “Table ABC: Biological Results” (See Table Section).

CCc1ccccc1NC(=S)NC(=O)NCCc1ccc(-c2ncn(-c3ccc(OC(F)(F)F)cc3)n2)cc1C [FB5, 1-[(2-ethylphenyl)carbamothioyl]-3-[2-[2-methyl-4-[1-[4-(trifluoromethoxy)phenyl]-1H-1,2,4-triazol-3-yl]phenyl]ethyl]urea]
pest or weed control at 50 µg/cm2 [1]: 50 to 100% | pest or weed control at 50 µg/cm2 [2]: 50 to 100%

CCc1ccccc1N1C(=O)CS/C1=N\C(=O)NCCc1ccc(-c2ncn(-c3ccc(OC(F)(F)F)cc3)n2)cc1C [FB6, (Z)-1-(3-(2-ethylphenyl)-4-oxothiazolidin-2-ylidene)-3-(2-methyl-4-(1-(4-(trifluoromethoxy)phenyl)-1H-1,2,4-triazol-3-yl)phenethyl)urea]
pest or weed control at 50 µg/cm2 [1]: 50 to 100% | pest or weed control at 50 µg/cm2 [2]: 50 to 100%

Cc1cc(-c2ncn(-c3ccc(OC(F)(F)F)cc3)n2)ccc1CCNC(=O)/N=C1\SCC(=O)N1c1cc(Cl)ccc1C(C)C [FB7, (Z)-1-(3-(5-chloro-2-isopropylphenyl)-4-oxothiazolidin-2-ylidene)-3-(2-methyl-4-(1-(4-(trifluoromethoxy)phenyl)-1H-1,2,4-triazol-3-yl)phenethyl)urea]
pest or weed control at 50 µg/cm2 [1]: 50 to 100% | pest or weed control at 50 µg/cm2 [2]: 50 to 100%

Cc1ccc(C(C)C)c(N2C(=O)CS/C2=N\C(=O)NCCc2ccc(-c3ncn(-c4ccc(OC(F)(F)F)cc4)n3)cc2F)c1 [FB8, (Z)-1-(2-fluoro-4-(1-(4-(trifluoromethoxy)phenyl)-1H-1,2,4-triazol-3-yl)phenethyl)-3-(3-(2-isopropyl-5-methylphenyl)-4-oxothiazolidin-2-ylidene)urea]
pest or weed control at 50 µg/cm2 [1]: 50 to 100% | pest or weed control at 50 µg/cm2 [2]: 50 to 100%

COc1ccc(C(C)C)c(N2C(=O)CS/C2=N\C(=O)NCCc2ccc(-c3ncn(-c4ccc(OC(F)(F)F)cc4)n3)cc2F)c1 [FB9, (Z)-1-(2-fluoro-4-(1-(4-(trifluoromethoxy)phenyl)-1H-1,2,4-triazol-3-yl)phenethyl)-3-(3-(2-isopropyl-5-methoxyphenyl)-4-oxothiazolidin-2-ylidene)urea]
pest or weed control at 50 µg/cm2 [1]: 50 to 100% | pest or weed control at 50 µg/cm2 [2]: 50 to 100%

CCc1ccccc1-n1c(=O)n(CC)s/c1=N\C(=O)NCCc1ccc(-c2ncn(-c3ccc(OC(F)(F)F)cc3)n2)cc1 [FB10, (Z)-1-(2-ethyl-4-(2-ethylphenyl)-3-oxo-1,2,4-thiadiazolidin-5-ylidene)-3-(4-(1-(4-(trifluoromethoxy)phenyl)-1H-1,2,4-triazol-3-yl)phenethyl)urea]
pest or weed control at 50 µg/cm2 [1]: 50 to 100% | pest or weed control at 50 µg/cm2 [2]: 50 to 100%

CCn1s/c(=N\C(=O)NCCc2ccc(-c3ncn(-c4ccc(OC(F)(F)F)cc4)n3)cc2)n(-c2ccc(OC)cc2C(C)C)c1=O [FB11, (Z)-1-(2-ethyl-4-(2-isopropyl-4-methoxyphenyl)-3-oxo-1,2,4-thiadiazolidin-5-ylidene)-3-(4-(1-(4-(trifluoromethoxy)phenyl)-1H-1,2,4-triazol-3-yl)phenethyl)urea]
pest or weed control at 50 µg/cm2 [1]: 0 to 50% | pest or weed control at 50 µg/cm2 [2]: 50 to 100%

CCn1s/c(=N\C(=O)NCCc2ccc(-c3ncn(-c4ccc(OC(F)(F)F)cc4)n3)cc2)n(-c2cc(F)ccc2C(C)C)c1=O [FB12, (Z)-1-(2-ethyl-4-(5-fluoro-2-isopropylphenyl)-3-oxo-1,2,4-thiadiazolidin-5-ylidene)-3-(4-(1-(4-(trifluoromethoxy)phenyl)-1H-1,2,4-triazol-3-yl)phenethyl)urea]
pest or weed control at 50 µg/cm2 [1]: 50 to 100% | pest or weed control at 50 µg/cm2 [2]: 50 to 100%

CCn1s/c(=N\C(=O)NCCc2ccc(-c3ncn(-c4ccc(OC(F)(F)F)cc4)n3)cc2)n(-c2ccc(F)cc2C(C)C)c1=O [FB13, (Z)-1-(2-ethyl-4-(4-fluoro-2-isopropylphenyl)-3-oxo-1,2,4-thiadiazolidin-5-ylidene)-3-(4-(1-(4-(trifluoromethoxy)phenyl)-1H-1,2,4-triazol-3-yl)phenethyl)urea]
pest or weed control at 50 µg/cm2 [1]: 0 to 50% | pest or weed control at 50 µg/cm2 [2]: 50 to 100%

CCn1s/c(=N\C(=O)NCCc2ccc(-c3ncn(-c4ccc(OC(F)(F)F)cc4)n3)cc2)n(-c2ccccc2C(C)C)c1=O [FB14]
pest or weed control at 50 µg/cm2 [1]: 50 to 100% | pest or weed control at 50 µg/cm2 [2]: 50 to 100%

Cc1ccc(C(C)C)c(N2C(=O)CS/C2=N\C(=O)NC2CCCCC2c2ccc(-c3ncn(-c4ccc(OC(F)(F)F)cc4)n3)cc2)c1 (stereo not shown) [FB15, (Z)-1-(3-(2-isopropyl-5-methylphenyl)-4-oxothiazolidin-2-ylidene)-3-(2-(4-(1-(4-(trifluoromethoxy)phenyl)-1H-1,2,4-triazol-3-yl)phenyl)cyclohexyl)urea]
pest or weed control at 50 µg/cm2 [1]: 50 to 100% | pest or weed control at 50 µg/cm2 [2]: 50 to 100%

Cc1ccccc1NC(=S)NC(=O)NCc1cccc(-c2ncn(-c3ccc(OC(F)(F)F)cc3)n2)c1 [FB18, 1-(o-tolylcarbamothioyl)-3-[[3-[1-[4-(trifluoromethoxy)phenyl]-1H-1,2,4-triazol-3-yl]phenyl]methyl]urea]
pest or weed control at 50 µg/cm2 [1]: 50 to 100% | pest or weed control at 50 µg/cm2 [2]: 50 to 100%

COc1ccc(NC(=S)NC(=O)NCc2cccc(-c3ncn(-c4ccc(OC(F)(F)F)cc4)n3)c2)c(C)c1 [FB19, 1-[(4-methoxy-2-methyl-phenyl)carbamothioyl]-3-[[3-[1-[4-(trifluoromethoxy)phenyl]-1H-1,2,4-triazol-3-yl]phenyl]methyl]urea]
pest or weed control at 50 µg/cm2 [1]: 50 to 100% | pest or weed control at 50 µg/cm2 [2]: 50 to 100%

CCc1ccccc1NC(=S)NC(=O)NCc1cccc(-c2ncn(-c3ccc(OC(F)(F)F)cc3)n2)c1 [FB20, 1-[(2-ethylphenyl)carbamothioyl]-3-[[3-[1-[4-(trifluoromethoxy)phenyl]-1H-1,2,4-triazol-3-yl]phenyl]methyl]urea]
pest or weed control at 50 µg/cm2 [1]: 50 to 100% | pest or weed control at 50 µg/cm2 [2]: 50 to 100%

CCc1cccc(C)c1NC(=S)NC(=O)NCc1cccc(-c2ncn(-c3ccc(OC(F)(F)F)cc3)n2)c1 [FB21, 1-[(2-ethyl-6-methyl-phenyl)carbamothioyl]-3-[[3-[1-[4-(trifluoromethoxy)phenyl]-1H-1,2,4-triazol-3-yl]phenyl]methyl]urea]
pest or weed control at 50 µg/cm2 [1]: 50 to 100% | pest or weed control at 50 µg/cm2 [2]: 50 to 100%

CC(C)c1ccccc1NC(=S)NC(=O)NCc1cccc(-c2ncn(-c3ccc(OC(F)(F)F)cc3)n2)c1 [FB22, 1-[(2-isopropylphenyl)carbamothioyl]-3-[[3-[1-[4-(trifluoromethoxy)phenyl]-1H-1,2,4-triazol-3-yl]phenyl]methyl]urea]
pest or weed control at 50 µg/cm2 [1]: 50 to 100% | pest or weed control at 50 µg/cm2 [2]: 50 to 100%

Cc1ccc(NC(=S)NC(=O)NCc2cccc(-c3ncn(-c4ccc(OC(F)(F)F)cc4)n3)c2)c(C(C)C)c1 [FB23, 1-[(2-isopropyl-4-methyl-phenyl)carbamothioyl]-3-[[3-[1-[4-(trifluoromethoxy)phenyl]-1H-1,2,4-triazol-3-yl]phenyl]methyl]urea]
pest or weed control at 50 µg/cm2 [1]: 50 to 100% | pest or weed control at 50 µg/cm2 [2]: 50 to 100%

CC(C)c1cc(F)ccc1NC(=S)NC(=O)NCc1cccc(-c2ncn(-c3ccc(OC(F)(F)F)cc3)n2)c1 [FB24, 1-[(4-fluoro-2-isopropyl-phenyl)carbamothioyl]-3-[[3-[1-[4-(trifluoromethoxy)phenyl]-1H-1,2,4-triazol-3-yl]phenyl]methyl]urea]
pest or weed control at 50 µg/cm2 [1]: 50 to 100% | pest or weed control at 50 µg/cm2 [2]: 50 to 100%

Cc1ccc(C(C)C)c(NC(=S)NC(=O)NCc2cccc(-c3ncn(-c4ccc(OC(F)(F)F)cc4)n3)c2)c1 [FB25, 1-[(2-isopropyl-5-methyl-phenyl)carbamothioyl]-3-[[3-[1-[4-(trifluoromethoxy)phenyl]-1H-1,2,4-triazol-3-yl]phenyl]methyl]urea]
pest or weed control at 50 µg/cm2 [1]: 50 to 100% | pest or weed control at 50 µg/cm2 [2]: 50 to 100%

CC(C)c1ccc(Cl)cc1NC(=S)NC(=O)NCc1cccc(-c2ncn(-c3ccc(OC(F)(F)F)cc3)n2)c1 [FB26, 1-[(5-chloro-2-isopropyl-phenyl)carbamothioyl]-3-[[3-[1-[4-(trifluoromethoxy)phenyl]-1H-1,2,4-triazol-3-yl]phenyl]methyl]urea]
pest or weed control at 50 µg/cm2 [1]: 50 to 100% | pest or weed control at 50 µg/cm2 [2]: 50 to 100%

Cc1ccccc1N1C(=O)CS/C1=N\C(=O)NCc1cccc(-c2ncn(-c3ccc(OC(F)(F)F)cc3)n2)c1 [FB27, (Z)-1-(4-oxo-3-(o-tolyl)thiazolidin-2-ylidene)-3-(3-(1-(4-(trifluoromethoxy)phenyl)-1H-1,2,4-triazol-3-yl)benzyl)urea]
pest or weed control at 50 µg/cm2 [1]: 50 to 100% | pest or weed control at 50 µg/cm2 [2]: 50 to 100%

COc1ccc(N2C(=O)CS/C2=N\C(=O)NCc2cccc(-c3ncn(-c4ccc(OC(F)(F)F)cc4)n3)c2)c(C)c1 [FB28, (Z)-1-(3-(4-methoxy-2-methylphenyl)-4-oxothiazolidin-2-ylidene)-3-(3-(1-(4-(trifluoromethoxy)phenyl)-1H-1,2,4-triazol-3-yl)benzyl)urea]
pest or weed control at 50 µg/cm2 [1]: 50 to 100% | pest or weed control at 50 µg/cm2 [2]: 50 to 100%

CCc1ccccc1N1C(=O)CS/C1=N\C(=O)NCc1cccc(-c2ncn(-c3ccc(OC(F)(F)F)cc3)n2)c1 [FB29, (Z)-1-(3-(2-ethylphenyl)-4-oxothiazolidin-2-ylidene)-3-(3-(1-(4-(trifluoromethoxy)phenyl)-1H-1,2,4-triazol-3-yl)benzyl)urea]
pest or weed control at 50 µg/cm2 [1]: 50 to 100% | pest or weed control at 50 µg/cm2 [2]: 50 to 100%
